According to US20260217704A1, “INDOLONE DERIVATIVE HAVING IRAK4 INHIBITORY ACTIVITY, AND PREPARATION METHOD THEREFOR AND USE THEREOF” (DOVETREE MEDICINES UNUS, INC., priority 2023, published 2026):

Biological target: T1, IRAK4 kinase protein (Homo sapiens, UniProt Q9NWZ3)
T1 sequence (Q9NWZ3 1-460): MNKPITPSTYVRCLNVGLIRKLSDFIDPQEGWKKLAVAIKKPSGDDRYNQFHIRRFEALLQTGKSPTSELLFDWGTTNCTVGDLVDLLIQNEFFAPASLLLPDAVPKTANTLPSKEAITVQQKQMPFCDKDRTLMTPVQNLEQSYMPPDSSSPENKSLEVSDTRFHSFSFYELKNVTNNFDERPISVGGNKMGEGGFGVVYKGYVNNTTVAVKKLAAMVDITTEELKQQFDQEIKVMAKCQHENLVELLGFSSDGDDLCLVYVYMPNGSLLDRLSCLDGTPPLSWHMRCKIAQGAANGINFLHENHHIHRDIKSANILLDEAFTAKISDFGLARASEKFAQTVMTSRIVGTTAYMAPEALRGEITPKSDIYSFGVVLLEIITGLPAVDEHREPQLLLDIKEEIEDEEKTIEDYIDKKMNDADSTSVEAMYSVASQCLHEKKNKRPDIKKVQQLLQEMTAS
Assay: IRAK4 kinase inhibition assay (Cisbio HTRF KinEASE-STK S1 kit)
Assay type: biochemical
Details: IRAK4 10 nM, ATP 200 μM, 37° C. 2 hours, read-out: IRAK4 inhibitory activity IC50
Method: Cisbio HTRF KinEASE-STK SI kit (62S1PEB) was used in this experiment. The experiment/detection buffer, STK Substrate 1-biotin, Streptavidin-XL665, and STK Antibody-Crypatete were all contained in the kit.
The compound/DMSO was added to a 384 plate (PerkinElmer 6008280) using Echo 665. Subsequently, 5 μL of IRAK4 kinase protein dissolved in an experimental buffer [1 volume of 5×kinase buffer+20 mM magnesium chloride (Sigma) solution+1 mM DTT (Alfa Aesar) solution+4 volumes of deionized water] at 2 folds reaction concentration was added (final concentration: 10 nM). The shallow well plate was sealed, shaken, and then centrifuged at 1000 rpm for 1 minute and incubated at room temperature for 5 minutes. 5 μL of a 1:1 mixture of STK Substrate 1-biotin (final concentration: 1 μM) and ATP (Sigma A1852) (final concentration: 200 μM) at 2 folds reaction concentration prepared with the experimental buffer was then added. The shallow well plate was sealed, shaken, then centrifuged at 1000 rpm for 1 minute, and incubated at 37° C. for 2 hours. Subsequently, 10 μL of a 1:1 mixed solution of Streptavidin-XL665 (final concentration: 62.5 nM) and STK-antibody-cryptate dissolved with the detection buffer was added. The shallow well plate was sealed, shaken, then centrifuged at 1000 rpm for 1 minute, and incubated at room temperature for 1 hour. Subsequently, numerical values were read at the wavelength of 620 nm/665 nm by a microplate reader. The data were analyzed by Prism 9.3 software, and the IC50 value of IRAK4 kinase inhibition was fitted by four-parameter Logistic equation. After detection, the compound of the present disclosure has a better IRAK4 kinase inhibitory activity.

Q: How did the IC50 turn out when `Cc1c(/C=C2\C(=O)Nc3ccc(S(=O)(=O)Nc4ccc(F)cc4)cc32)[nH]c2cc(N3CCNCC3)ccc12` [Compound 8] was run?
A: < 100 nM

Q: `O=C1Nc2ccc(S(=O)(=O)Nc3ccc(F)cc3)cc2/C1=C/Nc1cnn2cc(N3CCNCC3)ccc12` [Compound 6] was tested. Which IC50 did it give?
A: 500 to 1000 nM

Q: Which IC50 does the source give for `O=C1Nc2ccc(S(=O)(=O)Nc3ccc(F)cc3)cc2/C1=C/Nc1cn(C2CCCCC2)nc1C(F)F` [Compound 5] here?
A: < 100 nM

Q: `O=C1Nc2ccc(S(=O)(=O)Nc3ccc(F)cc3)cc2/C1=C\c1cc2cc(N3CCNCC3)ccc2o1` [Compound 3] was tested. Which IC50 did it give?
A: < 100 nM

Q: Which IC50 does the source give for `O=C1Nc2ccc(S(=O)(=O)Nc3ccc(F)cc3)cc2/C1=C/c1cc2ccc(N3CCNCC3)cc2[nH]1` [Compound 7] here?
A: < 100 nM

Q: Which IC50 does the source give for `CCNS(=O)(=O)c1ccc2c(c1)/C(=C\c1cc3cc(N4CCNCC4)ccc3o1)C(=O)N2` [Compound 4] here?
A: 100 to 500 nM

Q: With `Cc1ccc(/C=C2/C(=O)Nc3ccc(S(=O)(=O)Nc4ccc(F)cc4)cc32)o1` [Compound 1] as the compound, how does the IC50 read?
A: > 1000 nM

Q: `O=C1Nc2ccc(S(=O)(=O)Nc3ccc(F)cc3)cc2/C1=C/c1cn(C2CCCCC2)nc1C(F)F` [Compound 2] was tested. Which IC50 did it give?
A: 100 to 500 nM
